The text below walks through data of patent US9650616B2, “Methods for increasing grain yield” (University of Florida Research Foundation, Inc., priority 2014, dated 2017).

This assay addresses T1, maize endosperm AGPase, large subunit variant GGR (Q96G, D161G, A443R; numbering of SEQ ID NO: 20) (Zea mays, UniProt P55241+Q84PF5, A443R/D161G/Q96G).
T1 sequence (P55241 46-516 A443R/D161G/Q96G): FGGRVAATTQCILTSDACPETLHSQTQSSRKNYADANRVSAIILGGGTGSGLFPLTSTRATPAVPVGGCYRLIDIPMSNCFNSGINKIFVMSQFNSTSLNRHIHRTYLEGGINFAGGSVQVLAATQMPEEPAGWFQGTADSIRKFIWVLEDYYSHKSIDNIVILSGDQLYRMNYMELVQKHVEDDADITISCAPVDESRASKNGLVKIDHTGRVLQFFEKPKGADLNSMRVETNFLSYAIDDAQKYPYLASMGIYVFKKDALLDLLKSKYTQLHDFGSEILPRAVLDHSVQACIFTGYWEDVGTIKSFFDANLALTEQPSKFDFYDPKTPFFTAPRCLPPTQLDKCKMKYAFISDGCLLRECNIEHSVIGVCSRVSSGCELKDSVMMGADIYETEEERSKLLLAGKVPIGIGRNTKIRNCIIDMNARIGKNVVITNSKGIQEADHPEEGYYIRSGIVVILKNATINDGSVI
T1 sequence (Q84PF5 1-474): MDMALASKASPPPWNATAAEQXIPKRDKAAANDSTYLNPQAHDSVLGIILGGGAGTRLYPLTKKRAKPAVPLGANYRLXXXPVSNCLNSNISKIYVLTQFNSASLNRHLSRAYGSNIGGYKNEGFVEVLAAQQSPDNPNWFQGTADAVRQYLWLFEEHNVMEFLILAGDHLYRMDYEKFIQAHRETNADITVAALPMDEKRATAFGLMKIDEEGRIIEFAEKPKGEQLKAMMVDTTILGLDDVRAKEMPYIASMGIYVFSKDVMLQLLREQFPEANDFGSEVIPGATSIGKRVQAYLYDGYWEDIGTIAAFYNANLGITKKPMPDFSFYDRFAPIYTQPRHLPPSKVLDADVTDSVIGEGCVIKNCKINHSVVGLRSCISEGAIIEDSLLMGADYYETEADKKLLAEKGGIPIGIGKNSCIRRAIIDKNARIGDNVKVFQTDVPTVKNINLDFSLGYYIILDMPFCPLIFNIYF
Briefly: Kinetic constants in the absence of 3-PGA, GGR. Type of assay: biochemical. The protocol:
Reactions were performed for 10 min and terminated by boiling. Blank mixtures contained everything except ATP.
Based on the kinetic results (Table 10) and catalytic properties at 55° C. (Table 10) both D161G and GGR were selected for a more detailed kinetic analysis. […] The GGR mutant was primarily chosen based on its increased catalytic rate at 37° C. and high performance at 55° C. Its high activity in the absence of 3-PGA was also paramount. The first kinetic parameters determined were the Michaelis constants, the catalytic rate (kcat) and the dissociation constant (Kia) for the E-ATP complex, in the absence of 3-PGA. […] For the wt maize enzyme, this activator primarily responds by reducing the Km for both substrates, with little effect on the reaction rate (Boehlein et al., 2013). […] The kinetic mechanism established ATP as the first substrate to bind, thus the activator is no longer necessary for this first step. […] This variant also conditions both heat stability and high activity in the absence of an activator.

Structures are written as SMILES.

Consider `Nc1ncnc2c1ncn2[C@@H]1O[C@H](COP(=O)(O)OP(=O)(O)OP(=O)(O)O)[C@@H](O)[C@H]1O` [ATP], for which the kcat (ATP varied at fixed G-1-P) was found to be 72.4 s⁻¹. The Km (read-out: ATP Km) was determined as 100 µM.

As a reminder, the kcat is the number of substrate molecules converted per active site and unit of time at saturation. The term Km denotes the concentration of substrate that gives half-maximal velocity.
